According to US7446199B2, “Compositions useful as inhibitors of protein kinases” (Vertex Pharmaceuticals Incorporated, priority 2003, dated 2008):
Where “and” joins values, the source holds several entries; their conditions need not be identical. Equal values may be shown once.

Columns and labels:
Format in all cases: biochemical
JAK3 = molecular target: T1, JAK3 (Homo sapiens, UniProt P52333); assay: JAK3 inhibition assay (ELISA, Poly (Glu, Ala, Tyr) coated plates); conditions: 2 mM ATP, 60 minutes at 30° C.
T1 sequence (P52333 1-1124): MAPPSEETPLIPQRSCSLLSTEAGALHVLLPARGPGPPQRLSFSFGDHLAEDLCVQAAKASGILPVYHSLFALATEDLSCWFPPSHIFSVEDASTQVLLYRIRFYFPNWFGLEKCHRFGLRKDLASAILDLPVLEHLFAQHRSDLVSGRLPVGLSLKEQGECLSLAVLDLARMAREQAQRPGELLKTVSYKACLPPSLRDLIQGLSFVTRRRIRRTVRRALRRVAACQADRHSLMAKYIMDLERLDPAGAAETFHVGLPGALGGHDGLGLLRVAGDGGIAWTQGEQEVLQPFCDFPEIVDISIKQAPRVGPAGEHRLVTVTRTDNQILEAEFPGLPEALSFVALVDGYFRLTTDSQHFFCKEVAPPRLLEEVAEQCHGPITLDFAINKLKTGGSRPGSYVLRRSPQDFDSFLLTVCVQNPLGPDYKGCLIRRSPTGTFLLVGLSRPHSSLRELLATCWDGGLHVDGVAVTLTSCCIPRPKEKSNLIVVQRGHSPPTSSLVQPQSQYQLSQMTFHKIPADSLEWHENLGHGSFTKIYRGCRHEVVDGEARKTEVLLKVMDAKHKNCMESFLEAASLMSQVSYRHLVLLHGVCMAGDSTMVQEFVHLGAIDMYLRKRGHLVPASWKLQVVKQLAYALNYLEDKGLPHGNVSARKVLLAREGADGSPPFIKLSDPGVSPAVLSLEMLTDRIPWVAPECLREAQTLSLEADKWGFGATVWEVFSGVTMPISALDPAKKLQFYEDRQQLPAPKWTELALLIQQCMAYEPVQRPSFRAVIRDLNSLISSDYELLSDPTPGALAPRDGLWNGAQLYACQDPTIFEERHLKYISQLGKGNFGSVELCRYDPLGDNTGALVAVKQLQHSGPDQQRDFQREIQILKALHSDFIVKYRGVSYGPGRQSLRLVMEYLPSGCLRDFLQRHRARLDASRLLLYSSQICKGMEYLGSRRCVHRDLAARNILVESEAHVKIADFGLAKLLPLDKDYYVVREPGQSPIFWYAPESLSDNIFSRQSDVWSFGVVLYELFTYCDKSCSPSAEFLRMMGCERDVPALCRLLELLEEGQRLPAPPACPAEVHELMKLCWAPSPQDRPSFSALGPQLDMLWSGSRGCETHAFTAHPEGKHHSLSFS
How it was run: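 ELISA on Poly(Glu,Ala,Tyr) 6:3:1-coated plates with 2 mM ATP and 5 mM MgCl2. JAK enzyme started the reaction, run 60 min at 30° C. Phosphotyrosine was detected with HRP-conjugated 4G10 antibody and TMB, read at 450 nm, and IC50 was derived from optical densities.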

KDR = KDR (Homo sapiens, UniProt P35968); assay: KDR enzyme assay, coupled enzyme assay; conditions: 300 μM ATP, 10 μM poly E4Y, 30 nM KDR, 37° C.
Sequence of KDR (P35968 20-1356): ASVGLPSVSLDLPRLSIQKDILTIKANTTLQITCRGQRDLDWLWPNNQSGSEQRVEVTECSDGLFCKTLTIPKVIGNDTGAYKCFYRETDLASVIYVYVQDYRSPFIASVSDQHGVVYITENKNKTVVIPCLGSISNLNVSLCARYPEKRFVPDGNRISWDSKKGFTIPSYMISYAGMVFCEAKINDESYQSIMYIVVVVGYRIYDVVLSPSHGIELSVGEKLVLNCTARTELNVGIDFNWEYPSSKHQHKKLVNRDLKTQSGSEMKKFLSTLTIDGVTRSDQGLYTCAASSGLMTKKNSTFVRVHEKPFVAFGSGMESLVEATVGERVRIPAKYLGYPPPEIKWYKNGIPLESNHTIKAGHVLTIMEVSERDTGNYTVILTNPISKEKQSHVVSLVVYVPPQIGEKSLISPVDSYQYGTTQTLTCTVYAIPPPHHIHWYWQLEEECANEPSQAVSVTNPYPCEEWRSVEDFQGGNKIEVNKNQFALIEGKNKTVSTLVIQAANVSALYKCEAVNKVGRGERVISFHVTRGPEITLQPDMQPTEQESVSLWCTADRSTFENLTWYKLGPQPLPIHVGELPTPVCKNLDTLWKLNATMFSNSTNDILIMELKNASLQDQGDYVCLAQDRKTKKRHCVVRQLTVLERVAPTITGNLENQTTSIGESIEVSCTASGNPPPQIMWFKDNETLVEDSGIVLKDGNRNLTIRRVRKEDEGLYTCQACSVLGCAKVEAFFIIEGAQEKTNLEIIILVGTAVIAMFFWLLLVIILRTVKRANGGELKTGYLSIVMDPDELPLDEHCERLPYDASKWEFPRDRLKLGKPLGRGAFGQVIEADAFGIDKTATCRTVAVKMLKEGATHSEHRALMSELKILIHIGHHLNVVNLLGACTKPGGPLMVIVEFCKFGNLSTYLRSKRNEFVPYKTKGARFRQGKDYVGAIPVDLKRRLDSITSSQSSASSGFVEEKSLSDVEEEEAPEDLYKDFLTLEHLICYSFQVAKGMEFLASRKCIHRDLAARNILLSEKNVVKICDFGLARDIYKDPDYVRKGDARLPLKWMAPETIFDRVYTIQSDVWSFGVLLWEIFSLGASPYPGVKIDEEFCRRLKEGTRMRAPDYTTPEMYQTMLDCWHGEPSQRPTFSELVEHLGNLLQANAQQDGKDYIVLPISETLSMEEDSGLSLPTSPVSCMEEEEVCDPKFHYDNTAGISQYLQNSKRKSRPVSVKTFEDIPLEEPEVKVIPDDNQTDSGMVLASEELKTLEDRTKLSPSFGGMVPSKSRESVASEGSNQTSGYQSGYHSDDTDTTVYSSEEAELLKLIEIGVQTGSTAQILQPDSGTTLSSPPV
Procedure: Compounds were screened for their ability to inhibit KDR using a standard coupled enzyme assay (Fox et al., Protein Sci., (1998) 7, 2249). Assays were carried out in a mixture of 200 mM HEPES 7.5, 10 mM MgCl2, 25 mM NaCl, 1 mM DTT and 1.5% DMSO. Final substrate concentrations in the assay were 300 μM ATP (Sigma Chemicals) and 10 μM poly E4Y (Sigma). Assays were carried out at 37° C. and 30 nM KDR. Final concentrations of the components of the coupled enzyme system were 2.5 mM phosphoenolpyruvate, 200 μM NADH, 30 μg/ML pyruvate kinase and 10 μg/ml lactate dehydrogenase.
An assay stock buffer solution was prepared containing all of the reagents listed above, with the exception of ATP and the test compound of interest. 177 μl of the stock solution was placed in a 96 well plate followed by addition of 3 μl of 2 mM DMSO stock containing the test compound (final compound concentration 30 μM). The plate was preincubated for about 10 minutes at 37° C. and the reaction initiated by addition of 20 μl of ATP (final concentration 300 μM). Rates of reaction were obtained using a Molecular Devices plate reader (Sunnyvale, Calif.) over a 5 minute read time at 37° C.

GSK-3β, (AA 1-420) = GSK-3β, (AA 1-420) (Homo sapiens, UniProt P49841); assay: GSK-3 inhibition assay, coupled enzyme system; conditions: 20 μM ATP, 300 μM peptide, 20 nM GSK-3b, 30° C.; read-out: Ki values (GSK3)
Sequence of GSK-3β, (AA 1-420) (P49841 whole entry, the tested form may be a part): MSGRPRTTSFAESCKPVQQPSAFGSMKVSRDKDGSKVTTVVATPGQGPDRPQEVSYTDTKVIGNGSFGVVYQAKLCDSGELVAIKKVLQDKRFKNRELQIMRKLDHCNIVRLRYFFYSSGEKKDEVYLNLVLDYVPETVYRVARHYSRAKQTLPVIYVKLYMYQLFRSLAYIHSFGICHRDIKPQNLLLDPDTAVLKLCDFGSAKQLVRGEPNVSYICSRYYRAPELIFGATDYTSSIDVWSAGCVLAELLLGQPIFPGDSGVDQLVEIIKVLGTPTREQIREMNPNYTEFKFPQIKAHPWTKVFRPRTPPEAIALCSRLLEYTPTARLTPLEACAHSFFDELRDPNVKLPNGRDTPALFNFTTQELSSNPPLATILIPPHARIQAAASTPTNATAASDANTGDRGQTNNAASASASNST
Procedure: Compounds of the present invention were screened for their ability to inhibit GSK-3β, (AA 1-420) activity using a standard coupled enzyme system (Fox et al., Protein Sci. 1998, 7, 2249). Reactions were carried out in a solution containing 100 mM HEPES (pH 7.5), 10 mM MgCl2, 25 mM NaCl, 300 μM NADH, 1 mM DTT and 1.5% DMSO. Final substrate concentrations in the assay were 20 μM ATP (Sigma Chemicals, St Louis, Mo.) and 300 μM peptide (American Peptide, Sunnyvale, Calif.). Reactions were carried out at 30° C. and 20 nM GSK-3b. Final concentrations of the components of the coupled enzyme system were 2.5 mM phosphoenolpyruvate, 300 μM NADH, 30 μg/ml pyruvate kinase and 10 μg/ml lactate dehydrogenase.
An assay stock buffer solution was prepared containing all of the reagents listed above with the exception of ATP and the test compound of the present invention. The assay stock buffer solution (175 μl) was incubated in a 96 well plate with 5 μl of the test compound of the present invention at final concentrations spanning 0.002 μM to 30 μM at 30° C. for 10 min. Typically, a 12 point titration was conducted by preparing serial dilutions (from 10 mM compound stocks) with DMSO of the test compounds of the present invention in daughter plates. The reaction was initiated by the addition of 20 μl of ATP (final concentration 20 μM). Rates of reaction were obtained using a Molecular Devices Spectramax plate reader (Sunnyvale, Calif.) over 10 min at 30° C. The Ki values were determined from the rate data as a function of inhibitor concentration.

Ki (JAK3) | Ki (KDR) | Ki (GSK-3β, (AA 1-420)) | SMILES
< 0.2 µM | < 0.2 µM and 1 to 12.5 µM | < 0.2 µM | Nc1cccc(-c2cnc3[nH]cc(-c4oncc4-c4cccc(F)c4F)c3c2)c1 [Compound 86, 3-{3-[4-(2,3-Difluoro-phenyl)-isoxazol-5-yl]-1H-pyrrolo [2,3-b]pyridin-5-yl}-phenylamine]
1 to 12.5 µM | 0.2 to 1 µM | 1 to 12.5 µM | Fc1ccc(-c2cnoc2-c2c[nH]c3ncccc23)c(F)c1F [Compound 40, 3-[4-(2,3,4-Trifluoro-phenyl)-isoxazol-5-yl]-1H-pyrrolo [2,3-b]pyridine]
< 0.2 µM | 1 to 12.5 µM | – | Fc1cccc(-c2cnoc2-c2c[nH]c3ncc(-c4ccccn4)cc23)c1F [Compound 73, 3-(4-(2,3-Difluoro-phenyl)-isoxazol-5-yl)-5-pyridin-2-yl-1H-pyrrolo[2,3-b]pyridine]
< 0.2 µM | 0.2 to 1 µM | 0.2 to 1 µM | Fc1cccc(-c2cnoc2-c2c[nH]c3ncc(C4=CCC(NCc5ccccc5)CC4)cc23)c1F (stereo not shown) [Compound 136, Benzyl-(4-{3-[4-(2,3-difluoro-phenyl)-isoxazol-5-yl]-1H-pyrrolo[2,3-b]pyridin-5-yl}-cyclohex-3-enyl)-amine]
< 0.2 µM | < 0.2 µM | < 0.2 µM | CN1CCN(c2ccc(-c3cnc4[nH]cc(-c5oncc5-c5cccc(F)c5F)c4c3)cc2)CC1 [Compound 70, 3-[4-(2,3-Difluoro-phenyl)-isoxazol-5-yl]-5-[4-(4-methyl-piperazin-1-yl)-phenyl]-1H-pyrrolo[2,3-b]pyridine methanesulfonate]
1 to 12.5 µM | – | – | Nc1[nH]c2ncccc2c1-c1oncc1-c1cccc(F)c1F [Compound 152]
< 0.2 µM | 0.2 to 1 µM | 0.2 to 1 µM | Fc1cccc(-c2cnoc2-c2c[nH]c3ncc(-c4cccnc4)cc23)c1F [Compound 59, 3-[4-(2,3-Difluoro-phenyl)-isoxazol-5-yl]-5-pyridin-3-yl-1H-pyrrolo[2,3-b]pyridine]
0.2 to 1 µM | – | 0.2 to 1 µM | O=c1[nH]ccc2c(-c3oncc3-c3cccc(F)c3F)c[nH]c12 [Compound 145, 3-[4-(2,3-Difluoro-phenyl)-isoxazol-5-yl]-1,6-dihydro-pyrrolo[2,3-c]pyridin-7-one]
< 0.2 µM | 0.2 to 1 µM | 0.2 to 1 µM | Fc1cccc(-c2cnoc2-c2c[nH]c3ncc(-c4c[nH]cn4)cc23)c1F [Compound 76, 3-[4-(2,3-Difluoro-phenyl)-isoxazol-5-yl]-5-(3H-imidazol-4-yl)-1H-pyrrolo[2,3-b]pyridine]
0.2 to 1 µM | 0.2 to 1 µM | < 0.2 µM | Fc1cccc(-n2cnnc2-c2c[nH]c3ncc(-c4ccc(CN5CCOCC5)cc4)cc23)c1F [Compound 109, 3-[4-(2,3-Difluoro-phenyl)-4H-[1,2,4]triazol-3-yl]-5-(4-morpholin-4-ylmethyl-phenyl)-1H-pyrrolo[2,3-b]pyridine]
0.2 to 1 µM | < 0.2 µM | 0.2 to 1 µM | CN(C)Cc1cc(Cl)nc(-c2cnc3[nH]cc(-c4oncc4-c4cccc(F)c4F)c3c2)c1 [Compound 81, (2-Chloro-6-{3-[4-(2,3-difluoro-phenyl)-isoxazol-5-yl]-1H-pyrrolo[2,3-b]pyridin-5-yl}-pyridin-4-ylmethyl)-dimethyl-amine]
< 0.2 µM | < 0.2 µM | < 0.2 µM | Nc1ccc(-c2cnc3[nH]cc(-c4oncc4-c4cccc(F)c4F)c3c2)cc1 [Compound 90, 4-{3-[4-(2,3-Difluoro-phenyl)-isoxazol-5-yl]-1H-pyrrolo [2,3-b]pyridin-5-yl}-phenylamine]
0.2 to 1 µM | 1 to 12.5 µM | < 0.2 µM | CC(=O)N1CCC(c2cnc3[nH]cc(-c4oncc4-c4cccc(F)c4F)c3c2)CC1 [Compound 63, 1-(4-{3-[4-(2,3-Difluoro-phenyl)-isoxazol-5-yl]-1H-pyrrolo[2,3-b]pyridin-5-yl}-piperidin-1-yl)-ethanone]
< 0.2 µM | 0.2 to 1 µM | 0.2 to 1 µM | Fc1cccc(-c2cnoc2-c2c[nH]c3ncc(Br)cc23)c1F [Compound 37, 5-Bromo-3-[4-(2,3-difluoro-phenyl)-isoxazol-5-yl]-1H-pyrrolo[2,3-b]pyridine]
1 to 12.5 µM | – | < 0.2 µM | CCN1CCC(c2cnc3[nH]cc(-c4oncc4-c4cccc(F)c4F)c3c2)CC1 [Compound 72, 3-[4-(2,3-Difluoro-phenyl)-isoxazol-5-yl]-5-(1-ethyl-piperidin-4-yl)-1H-pyrrolo[2,3-b]pyridine]
1 to 12.5 µM | – | 1 to 12.5 µM | CN1CCN(C(=O)[C@H]2C[C@H]2c2cnc3[nH]cc(-c4oncc4-c4cccc(F)c4F)c3c2)CC1 (relative stereo) [Compound 143, cis-(2-{3-[4-(2,3-Difluoro-phenyl)-isoxazol-5-yl]-1H-pyrrolo[2,3-b]pyridin-5-yl}-cyclopropyl)-(4-methyl-piperazin-1-yl)-methanone]
1 to 12.5 µM | – | – | Cn1ccc2c(-c3oncc3-c3cccc(F)c3F)c[nH]c2c1=O [Compound 144, 3-[4-(2,3-Difluoro-phenyl)-isoxazol-5-yl]-6-methyl-1,6-dihydro-pyrrolo[2,3-c]pyridin-7-one]
1 to 12.5 µM | – | 0.2 to 1 µM | CN1CCC(c2cnc3[nH]cc(-c4oncc4-c4cccc(F)c4F)c3c2)CC1 [Compound 60, 3-[4-(2,3-Difluoro-phenyl)-isoxazol-5-yl]-5-(1-methyl-piperidin-4-yl)-1H-pyrrolo[2,3-b]pyridine]
0.2 to 1 µM | 1 to 12.5 µM | – | Fc1cccnc1-c1cnc2[nH]cc(-c3oncc3-c3cccc(F)c3F)c2c1 [Compound 74, 3-[4-(2,3-Difluoro-phenyl)-isoxazol-5-yl]-5-(3-fluoro-pyridin-2-yl)-1H-pyrrolo[2,3-b]pyridine]
0.2 to 1 µM | 0.2 to 1 µM | – | CN(C)c1ccnc2[nH]cc(-c3oncc3-c3cccc(F)c3F)c12 [Compound 56, {3-[4-(2,3-Difluoro-phenyl)-isoxazol-5-yl]-1H-pyrrolo[2,3-b]pyridin-4-yl}-dimethyl-amine]
